Data as given in patent publication US20250354998A1, “METHODS OF DIAGNOSING AND TREATING MULTIPLE SCLEROSIS BY DETECTING A BIOMARKER IN THE CEREBROSPINAL FLUID” (Principia Biopharma Inc., priority 2023, published 2025).

Tests used:
[1] = tested on: CSF proteome (Olink Explore 384 panels, 1463 analytes); experiment: Olink proteomics of cerebrospinal fluid of MS patients under therapy; format: in vivo, human
Protocol: In the present study, a platform technology (Olink® Proteomics) was used. This test utilizes a high throughput, multiplex immunoassay technology that enables the measurement of over 1000 proteins from small sample volumes. See e.g., Assarsson E, et al. PLoS One 2014; 9(4): e95192; and Cui M, et al. Lab Invest 2022, each of which is incorporated by reference in its entirety. Two sets of subjects were analyzed. First, Olink proteomics technology was used to profile the baseline CSF proteome of untreated MS patients. Second, alterations to the MS CSF proteome upon therapeutic intervention with either a B cell depleting agent alone or after transitioning to tolebrutinib, a brain penetrant Bruton's tyrosine kinase (BTK) inhibitor, was evaluated.
To establish a baseline of proteomic expression, an Olink proteomics assay was performed on the CSF of multiple groups of subjects, including healthy volunteers (HV), HTLV 1 associated myelopathy/tropical spastic paraparesis (HAM/TSP) patients, radiologically isolated syndrome (RIS) patients, clinically isolated syndrome (CIS) patients, and multiple sclerosis (MS) patients, including patients with relapsing remitting MS (RRMS), secondary progressive MS (SPMS), and primary progressive MS (PPMS). CSF samples were collected from 31 healthy volunteers and 71 treatment-naïve subjects with MS. The CSF proteome was examined using the Cardiometabolic, Inflammation, Neurology, and Oncology Olink Explore 384 panels (1463 analytes total).
Next, it was examined whether treatment with different therapies for patients having MS would result in differential proteome expression. A group of subjects with MS were treated either with an anti-CD20 antibody alone or with an anti-CD20 antibody and then transitioning to tolebrutinib, and their proteome was examined using similar techniques described in Example 1B. More specifically, the cohort of MS patients in this example included untreated patients, patients treated with a B cell depleting agent for at least six months, and patients 12 weeks and 48 weeks after transitioning from a B cell depletion therapy to tolebrutinib in a clinical trial (NCT04742400).
Several participants (age [mean±standard deviation]: 48.2±7.9 years; sex: 2 female) who had been treated with ocrelizumab for >6 months (median: 3.2 years; range: 1.8-4.0 years) were included. Participants had no signs of acute focal inflammation based on magnetic resonance imaging. CSF was collected before baseline (within 6 months since last ocrelizumab infusion), and at 12 and 48 weeks after transitioning to tolebrutinib 60 mg.
The data were sorted into two sets of comparisons. The comparisons include (1) subjects treated with an anti-CD20 antibody compared to untreated MS subjects (FIG. 3) and (2) subjects treated with tolebrutinib after transitioning from an anti-CD20 antibody compared to subjects treated with an anti-CD20 antibody (FIG. 4A).

CXCL13 = CXCL13 protein level in CSF by MSD (meso scale discovery); format: in vivo, human; conditions: MSD (FIG. 6); twelve week and forty-eight week course of tolebrutinib vs untreated, HAM/TSP or continued ocrelizumab
Source text: HV: health volunteer; HAM/TSP: HTLV-1 associated myelopathy/tropical spastic paraparesis without treatment; MS_untreated: subjects with MS but have not been treated; MS_ocrelizumab: subjects treated only with an anti-CD20 antibody; MS_tolebrutinib: subjects treated with daily doses of tolebrutinib.
Similarly, this decrease was seen when comparing subjects who continued treatment with the anti-CD20 antibody (ocrelizumab) with subjects treated with a twelve week and forty-eight week course of tolebrutinib. FIGS. 4D, 5, and 6.

[2] = CSF, 48 weeks after transitioning from anti-CD20 antibody to tolebrutinib 60 mg vs anti-CD20 antibody
[3] = CSF, 48 weeks post-transition to tolebrutinib vs anti-CD20
[4] = CSF, subjects treated with anti-CD20 antibody for at least six months vs untreated MS subjects

C=CC(=O)N1CCC[C@@H](n2c(=O)n(-c3ccc(Oc4ccccc4)cc3)c3c(N)nccc32)C1 [tolebrutinib, (R)-1-(1-acryloylpiperidin-3-yl)-4-amino-3-(4-phenoxyphenyl)-1H-imidazo[4,5-c]pyridin-2(3H)-one]
example biomarkers NEFL, CXCL13, CXCL10, CD27, CCL4 and CCL3 in CSF ([1]; 48 weeks after transitioning from anti-CD20 therapy to tolebrutinib): disease-reversed proteins
ANGPT1 Fold-Change (48wkBTKi. vs. antiCD20) [1, 2]: −1.658
ANGPTL2 Fold-Change (48wkBTKi. vs. antiCD20) [1, 2]: −3.266
ATXN10 Fold-Change (48wkBTKi. vs. antiCD20) [1, 2]: −6.437
CCL3 Fold-Change (48wkBTKi. vs. antiCD20) [1, 2]: −2.142
CCL4 Fold-Change (48wkBTKi. vs. antiCD20) [1, 2]: −2.092
CCL8 Fold-Change (48wkBTKi. vs. antiCD20) [1, 2]: −2.68
CCL11 Fold-Change (48wkBTKi. vs. antiCD20) [1, 2]: −1.9597
CCN4 Fold-Change (48wkBTKi. vs. antiCD20) [1, 2]: −1.611
CD4 Fold-Change (48wkBTKi. vs. antiCD20) [1, 2]: −1.706
CD8A Fold-Change (48wkBTKi. vs. antiCD20) [1, 2]: −1.75
CD38 Fold-Change (48wkBTKi. vs. antiCD20) [1, 2]: −2.035
CD276 Fold-Change (48wkBTKi. vs. antiCD20) [1, 2]: −2.173
CD302 Fold-Change (48wkBTKi. vs. antiCD20) [1, 2]: −1.5791
CDH3 Fold-Change (48wkBTKi. vs. antiCD20) [1, 2]: −2.293
CDNF Fold-Change (48wkBTKi. vs. antiCD20) [1, 2]: −2.1
CGREF1 Fold-Change (48wkBTKi. vs. antiCD20) [1, 2]: −1.535
CHRDL1 Fold-Change (48wkBTKi. vs. antiCD20) [1, 2]: −2.236
CLEC4C Fold-Change (48wkBTKi. vs. antiCD20) [1, 2]: −1.714
CLUL1 Fold-Change (48wkBTKi. vs. antiCD20) [1, 2]: −2.021
CTRC Fold-Change (48wkBTKi. vs. antiCD20) [1, 2]: −2.869
CXCL1 Fold-Change (48wkBTKi. vs. antiCD20) [1, 2]: −3.054
CXCL8 Fold-Change (48wkBTKi. vs. antiCD20) [1, 2]: −1.605
CXCL10 Fold-Change (48wkBTKi. vs. antiCD20) [1, 2]: −3.598
DRAXIN Fold-Change (48wkBTKi. vs. antiCD20) [1, 2]: −2.047
HS3ST3B1 Fold-Change (48wkBTKi. vs. antiCD20) [1, 2]: −1.708
HYOU1 Fold-Change (48wkBTKi. vs. antiCD20) [1, 2]: −1.676
IL5RA Fold-Change (48wkBTKi. vs. antiCD20) [1, 2]: −1.716
IL11 Fold-Change (48wkBTKi. vs. antiCD20) [1, 2]: −6.841
KAZALD1 Fold-Change (48wkBTKi. vs. antiCD20) [1, 2]: −1.548
KRT18 Fold-Change (48wkBTKi. vs. antiCD20) [1, 2]: −1.6528
LPL Fold-Change (48wkBTKi. vs. antiCD20) [1, 2]: −1.744
LTA Fold-Change (48wkBTKi. vs. antiCD20) [1, 2]: −1.552
MATN3 Fold-Change (48wkBTKi. vs. antiCD20) [1, 2]: −1.889
MFAP5 Fold-Change (48wkBTKi. vs. antiCD20) [1, 2]: −2.536
MSLN Fold-Change (48wkBTKi. vs. antiCD20) [1, 2]: −2.068
MZB1 Fold-Change (48wkBTKi. vs. antiCD20) [1, 2]: −1.968
NEFL Fold-Change (48wkBTKi. vs. antiCD20) [1, 2]: −3.42
NPDC1 Fold-Change (48wkBTKi. vs. antiCD20) [1, 2]: −2.471
NPTX1 Fold-Change (48wkBTKi. vs. antiCD20) [1, 2]: −2.103
NPY Fold-Change (48wkBTKi. vs. antiCD20) [1, 2]: −1.797
NTproBNP Fold-Change (48wkBTKi. vs. antiCD20) [1, 2]: −2.314
NUB1 Fold-Change (48wkBTKi. vs. antiCD20) [1, 2]: −1.624
NUCB2 Fold-Change (48wkBTKi. vs. antiCD20) [1, 2]: −2.551
PDCD5 Fold-Change (48wkBTKi. vs. antiCD20) [1, 2]: −2.511
PRL Fold-Change (48wkBTKi. vs. antiCD20) [1, 2]: −3.416
ROBO1 Fold-Change (48wkBTKi. vs. antiCD20) [1, 2]: −1.511
RTBDN Fold-Change (48wkBTKi. vs. antiCD20) [1, 2]: −2.625
SCG2 Fold-Change (48wkBTKi. vs. antiCD20) [1, 2]: −2.959
SCG3 Fold-Change (48wkBTKi. vs. antiCD20) [1, 2]: −2.2848
SPRY2 Fold-Change (48wkBTKi. vs. antiCD20) [1, 2]: −1.907
STC1 Fold-Change (48wkBTKi. vs. antiCD20) [1, 2]: −1.863
TDGF1 Fold-Change (48wkBTKi. vs. antiCD20) [1, 2]: −4.457
TIMP4 Fold-Change (48wkBTKi. vs. antiCD20) [1, 2]: −1.776
TNFRSF6B Fold-Change (48wkBTKi. vs. antiCD20) [1, 2]: −2.999
TNFRSF13B Fold-Change (48wkBTKi. vs. antiCD20) [1, 2]: −2.063
WFIKKN2 Fold-Change (48wkBTKi. vs. antiCD20) [1, 2]: −2.432
WIF1 Fold-Change (48wkBTKi. vs. antiCD20) [1, 2]: −1.994
share of disease-associated proteins reverting towards levels observed in healthy volunteers ([1]; CSF, 48 weeks after transitioning to tolebrutinib from a B-cell depleting therapy): 47%
number of proteins with decreased abundance [1, 3]: 60 proteins
number of proteins with increased abundance [1, 3]: 0 proteins
proteins with increased abundance in subjects with MS (relative to HV) that were reversed ([1]; CSF, 48 weeks post-transitioning to tolebrutinib relative to anti-CD20 baseline levels): 30 proteins
CXCL10 in CSF ([1]; Olink, subjects who switched from ocrelizumab to tolebrutinib (12 and 48 weeks)): downregulated
CXCL13 in CSF ([1]; Olink, subjects who switched from ocrelizumab to tolebrutinib, twelve week and forty-eight week course): downregulated
CXCL13 in CSF (CXCL13): decrease

anti-CD20 antibody: B cell depleting agent; participants had been treated with ocrelizumab, humanized monoclonal antibody directed against the CD20 antigen
CD6 Fold-change (antiCD20. vs. Untreated) [1, 4]: −1.8
CD22 Fold-change (antiCD20. vs. Untreated) [1, 4]: −2.442
FCRL1 Fold-change (antiCD20. vs. Untreated) [1, 4]: −2.744
SORD Fold-change (antiCD20. vs. Untreated) [1, 4]: 2.045
